Patent publication US20250114436A1, “DYNAMIC-COVALENT HYDROGELS WITH GLUCOSE-SPECIFIC AND GLUCOSE-RESPONSIVE DIBORONATE CROSSLINKING” (UNIVERSITY OF NOTRE DAME DU LAC, priority 2022, published 2025)

Assays:
[1] = test system: streptozotocin (STZ)-induced diabetic mice; experiment: Blood glucose control in vivo with glucose tolerance tests; design: species or system male C57BL6/J mice; details: free insulin 4 IU/kg
Description: To evaluate the performance hydrogels for blood glucose control, male C57BL6/J mice (8 weeks old, ˜25 g/mouse; Jackson Laboratory) were induced to be insulin deficient using streptozotocin (STZ). Mice were fasted for 4 h, following which a single intraperitoneal (i.p.) injection of STZ at a dose of 150 mg/kg was administered. Following an additional 30 min fast, food was returned. Seven days following STZ treatment, insulin-deficient diabetes was verified using hand-held blood glucose meters (CVS brand) with unfasted blood glucose (BG) levels ensured to be above 600 mg/dL for study inclusion. Mice were then fasted for 12 h, and those with BG >550 mg/dL were randomly divided into 4 groups (n=5-6/group). […] BG level were continuously monitored for 3 h after treatment. […] BG were subsequently monitored for 3 h. […] Areas under the curve (AUC) were calculated using the trapezoidal rule and statistical analyses were performed to compare DiPBA and FPBA treatment groups using GraphPad Prism v9.0, with significance obtained using a Student's t-test. […] Glucose levels were monitored over time using handheld glucometers (FIG. 11B). […]

[2] = Acid-base titration for pKa determination; assay type: physicochemical; details: small molecule
Description: A 0.01 M stock solution of the PBA of interest was prepared by dissolving 0.2 mmol of each PBA in 20 mL DI water. The solution was then titrated with 0.005 M NaOH solution under constant stirring with pH monitoring.
Previously reported diboronate glucose sensors include architectures of two phenylboronic acids attached to an aryl core via charged ammonium linkers. In a variation on this approach, the DiPBA motif explored here has introduced adjacent charge via pyridine-based phenylboronic acid structures (FIG. 1B). Besides conserving adjacent positive charge, the topology of this novel design was also intended to afford a more rigid pocket for simultaneous glucose binding by both boronates (FIG. 2B). Details for the synthesis and molecular characterization of this novel DiPBA group, along with all other synthetic small molecules and macromers, are reported in the Online Supporting Information. As a control for this glucose-binding motif, a single pyridine-PBA (PyPBA) was also synthesized. DiPBA and PyPBA motifs were compared in this work to a fluorine-substituted PBA motif (FPBA) that has been routinely reported in glucose-responsive materials and therapeutic constructs.

[3] = Isothermal titration calorimetry (ITC), fructose binding
Description: (§1) The binding affinities (Keq) between different small molecule PBAs and model analytes (FIG. 2) were measured through isothermal titration calorimetry (ITC). All titration experiments were performed at 298 K on a PEAQ-ITC calorimeter (MicroCal, Inc.) in degassed pH 7.4 PBS buffer, using a 38 μL syringe and 200 μL cells and consisting of 19 injections. The measurements were performed by titrating glucose, fructose, sodium lactate, or Diolsm from the syringe into a solution of small molecule variants of DiPBAsm, PyPBAsm, or FPBAsm loaded in the cell. In all titration experiments, the cell concentration was 1 mM, while the analyte concentrations in the syringe were varied according to experimental optimization. All raw data were corrected by subtraction of a dilution measurement of the titrated analytes into buffer and were then analyzed and graphed using the integrated public-domain software packages of NIPIC, SEDPHAT, and GUSSI according to a published protocol. See Brautigam et al., Nat. Protoc. 11(5): 882-894 (2016).
(§2) To first quantify the affinities of binding for these different PBA motifs to glucose, related analytes, and model diols, a set of small molecules (FIG. 2) were synthesized for isothermal titration calorimetry (ITC) studies. […] By comparison, the commonly used FPBA motif had Keq for glucose binding of only 8.6 M^−1. […] Accordingly, concerns over low-affinity glucose-binding and poor glucose selectivity of traditional PBAs are supported by these ITC data, with both issues seemingly overcome using DiPBA chemistry. […] Finally, to explore the likely outcomes of using each of these PBA motifs in the context of dynamic-covalent networks a model diol (GdL-Diol) was prepared from reaction of glucono-δ-lactone (GdL) with benzylamine. The Keq of binding for each PBA motif to this model diol were nearly identical (˜5×10^3 M^−1); this finding confirms similar 1:1 binding stoichiometry between all three PBA chemistries studied here and the GdL-derived diol chemistry commonly used in preparing dynamic-covalent PBA-diol networks.

[4] = Isothermal titration calorimetry (ITC), lactate binding
Description: as §1, §2

[5] = Isothermal titration calorimetry (ITC), glucose binding; details: for Keq for binding to glucose: 298 K, pH 7.4 PBS
Description: as §1, §2

pKa ([2]; DI water titrated with 0.005 M NaOH) | fructose binding compared to FPBA / traditional PBA [3] | lactate binding compared to FPBA / traditional PBA [4] | Keq for binding to glucose [5] | pKa1 [2] | pKa2 [2] | Keq for glucose relative to that for fructose (times higher) ([3]; pH 7.4 PBS) | Keq for glucose relative to that for lactate (times higher) ([4]; pH 7.4 PBS) | glucose affinity relative to a traditional PBA motif (times higher) [5] | Compound | blood glucose response to first i.p. glucose tolerance test ([1]; GTT 1.25 g/kg glucose at 180 min) | time to blood glucose nadir ([1]; s.c.)
– | – | – | – | – | – | – | – | – | insulin: Recombinant Human Insulin, free insulin control, 4 IU/kg s.c. | dramatically increased blood glucose without any subsequent correction | ~1 h
4.41 | reduced | reduced | 164.7 M⁻¹ | – | – | – | – | – | COC(=O)c1cccc(C[n+]2cccc(B(O)O)c2)c1 [PyPBA] | – | –
– | reduced | reduced | 1295 M⁻¹ | 4.53 | 7.45 | 1.7 times | 29 times | 150 times | COC(=O)c1cc(C[n+]2cccc(B(O)O)c2)ccc1C[n+]1cccc(B(O)O)c1 [DiPBA] | – | –
